Results taken from patent publication US10358454B2, “Marinopyrrole derivatives and methods of making and using same” (H. LEE MOFFITT CANCER CENTER AND RESEARCH INSTITUTE, INC., priority 2014, dated 2019).
Where two headings read alike, the source gives them in different places.

Legend:
Mcl-1/Bim = Mcl-1/Bim (Homo sapiens, UniProt Q07820); experiment: Mcl-1/Bim ELISA (GST-Mcl-1 binding to biotinylated Bim BH3 peptide); details: for selectivity profile Mcl-1 vs Bcl-xL in words: from Mcl-1/Bim and Bcl-xL/Bim ELISA
Method: (§1) ELISAs were performed using a modified version of a previously described procedure (Doi K et al. J. Biol. Chem. 2012, 287, 10224-10235). Briefly, 40 nM of biotinylated Bim BH3 peptide (Biomatik) in SuperBlock blocking buffer (Pierce) was incubated in high-binding capacity streptavidin-coated plates (Pierce) for 2 h. Compounds were diluted in 120 μl of PBS containing 10 nM of GST-Mcl-1 or GST-Bcl-xL in 1.5 mL tubes for 15 min. Wells were washed with wash buffer (PBS containing 0.05% Tween-20) and then 100 μL of the compound/GST-protein mixture was transferred to the wells. The plates were incubated for 2 h, and then the wells were washed with wash buffer. HRP-conjugated anti-GST antibody (Bethyl Laboratories) was diluted 1:2000 in SuperBlock and 100 μL was transferred to each well. The plate was incubated for 1 h, and then the wells were washed with wash buffer followed by PBS. 100 μL of SureBlue TMB Microwell Peroxidase Substrate (VWR) was added to each well and plates were developed for 5-10 min. 100 μL of 1 N HCl was added to each well to stop the reaction and absorbance was read at 450 nm using a μQuant plate reader (Bio-Tek).
(§2) ELISAs were performed using a similar procedure as previously described (Doi K, et al. J. Biol. Chem. 2012, 287, 10224-10235). Briefly, 40 nM of biotinylated Bim BH3 peptide (Biomatik) in SuperBlock blocking buffer (Pierce) was incubated in high-binding capacity streptavidin-coated plates (Pierce) for 2 h. Compounds were diluted in 120 μl of PBS containing 10 nM of GST-Mcl-1 or GST-Bcl-xL in 1.5 mL tubes for 15 min. Wells were washed with wash buffer (PBS containing 0.05% Tween-20) and then 100 μL of the compound/GST-protein mixture was transferred to the wells. The plates were incubated for 2 h, and then wells were washed with wash buffer. HRP-conjugated anti-GST antibody (Bethyl Laboratories) was diluted 1:2000 in SuperBlock and 100 μL was transferred to each well. The plate was incubated for 1 h, and then wells were washed with wash buffer followed by PBS. 100 μL of SureBlue TMB Microwell Peroxidase Substrate (VWR) was added to each well and plates were developed for 5-10 min. 100 μL of 1 N HCl was added to each well to stop the reaction and absorbance was read at 450 nm using μQuant plate reader (Bio-Tek).

Bcl-xL/Bim = Bcl-xL/Bim (Homo sapiens, UniProt Q07817); experiment: Bcl-xL/Bim ELISA (GST-Bcl-xL binding to biotinylated Bim BH3 peptide)
Method: as §1, §2

[1] = Table 2-B, n ≥ 3, read-out: Mcl-1/Bim IC50 (average ± SEM)
[2] = Table 3-A structure I, Mcl-1 at 10 nM, n ≥ 3, read-out: Mcl-1-Bim IC50 (average ± SEM)
[3] = Table 2-B, n ≥ 3 unless specified, read-out: Bcl-xL/Bim IC50 (average ± SEM)
[4] = Table 3-A structure I, Bcl-xL at 10 nM, n ≥ 3, read-out: Bcl-xL-Bim IC50 (average ± SEM)

Sequence of Mcl-1/Bim (Q07820 whole entry): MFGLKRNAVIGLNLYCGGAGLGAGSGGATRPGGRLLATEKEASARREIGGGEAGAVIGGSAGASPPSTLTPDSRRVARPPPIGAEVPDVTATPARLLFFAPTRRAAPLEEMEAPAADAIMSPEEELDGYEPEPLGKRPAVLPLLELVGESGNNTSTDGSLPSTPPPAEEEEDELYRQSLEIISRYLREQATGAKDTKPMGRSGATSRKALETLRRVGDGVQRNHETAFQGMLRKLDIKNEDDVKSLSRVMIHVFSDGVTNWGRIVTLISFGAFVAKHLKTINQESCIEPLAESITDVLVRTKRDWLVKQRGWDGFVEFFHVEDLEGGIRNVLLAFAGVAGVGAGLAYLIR
Sequence of Bcl-xL/Bim (Q07817 whole entry): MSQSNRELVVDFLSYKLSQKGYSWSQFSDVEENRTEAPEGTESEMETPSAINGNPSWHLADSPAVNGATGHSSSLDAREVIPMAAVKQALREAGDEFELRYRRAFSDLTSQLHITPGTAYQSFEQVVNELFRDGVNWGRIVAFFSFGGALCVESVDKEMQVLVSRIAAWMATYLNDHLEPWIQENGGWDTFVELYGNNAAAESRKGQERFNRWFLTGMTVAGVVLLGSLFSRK

IC50 (Mcl-1/Bim; [1]) | IC50 (Mcl-1/Bim; [2]) | IC50 (Bcl-xL/Bim; [3]) | IC50 (Bcl-xL/Bim; [4]) | Compound | selectivity profile Mcl-1 vs Bcl-xL in words (Mcl-1/Bim) | other results
 |  |  |  | O=C(c1ccc(C(F)(F)F)cc1O)c1[nH]c(Cl)c(Cl)c1-n1c(C(=O)c2ccc(C(F)(F)F)cc2O)cc(Cl)c1Cl [Compound 1-1] | dual Mcl-1 and Bcl-XL antagonists | 
1000 ± 300 nM | 1000 ± 300 nM | 2500 ± 700 nM | 2100 ± 700 nM | O=C(c1ccc(OS(=O)(=O)C(F)(F)F)cc1O)c1[nH]c(Cl)c(Cl)c1-n1c(C(=O)c2ccc(OS(=O)(=O)C(F)(F)F)cc2O)cc(Cl)c1Cl [Compound 1-6, (4,4′,5,5′-tetrachloro-1′H-1,3′-bipyrrole-2,2′-diyl)bis(((2-hydroxy-4-hydroxytrifluoromethanesulfonate)-phenyl)methanone)] |  | IC50 (Mcl-1/Bim; read-out: IC50 to inhibit the binding of Mcl-1 to Bim): 1000 nM
 |  | > 50000 nM | > 50000 nM | O=C(c1ccc(O)cc1O)c1[nH]c(Cl)c(Cl)c1-n1c(C(=O)c2ccc(O)cc2O)cc(Cl)c1Cl [Compound 1-7] |  | activity against Mcl-1/Bim in words (Mcl-1/Bim): lost potency
 |  | > 50000 nM | > 50000 nM | O=C(c1cc(Cl)c(O)cc1O)c1[nH]c(Cl)c(Cl)c1-n1c(C(=O)c2cc(Cl)c(O)cc2O)cc(Cl)c1Cl [Compound 1-8] |  | 
 | 1800 ± 300 nM |  | 1200 ± 200 nM | CCOC(=O)CSc1ccc(C(=O)c2[nH]c(Cl)c(Cl)c2-n2c(C(=O)c3ccc(SCC(=O)OCC)cc3O)cc(Cl)c2Cl)c(O)c1 [Compound 1-9] |  | fold improvement of potency against Mcl-1/Bim (Mcl-1/Bim; 1-9 vs 1-15): 3.4 fold; fold enhancement of potency against Bcl-xL/Bim (Bcl-xL/Bim; 1-9 vs 1-15): over 83 fold
 | 700 ± 200 nM |  |  | O=C(c1ccc(SCc2ccccc2)cc1O)c1[nH]c(Cl)c(Cl)c1-n1c(C(=O)c2ccc(SCc3ccccc3)cc2O)cc(Cl)c1Cl [Compound 1-10, (4,4′,5,5′-Tetrachloro-1′H-1,3′-bipyrrole-2,2′-diyl)bis(((2-hydroxy-4-benzylthio)phenyl)methanone)] | most potent dual Mcl-1 and Bcl-xL antagonists | IC50 (Bcl-xL/Bim; read-out: IC50 to inhibit Bcl-xL/Bim binding): 600 nM
700 ± 100 nM |  |  | 600 ± 100 nM | COc1ccc(CSc2ccc(C(=O)c3[nH]c(Cl)c(Cl)c3-n3c(C(=O)c4ccc(SCc5ccc(OC)cc5)cc4O)cc(Cl)c3Cl)c(O)c2)cc1 [Compound 1-11] |  | 
37300 ± 3100 nM |  | > 50000 nM |  | CCOC(=O)CS(=O)(=O)c1ccc(C(=O)c2[nH]c(Cl)c(Cl)c2-n2c(C(=O)c3ccc(S(=O)(=O)CC(=O)OCC)cc3O)cc(Cl)c2Cl)c(O)c1 [Compound 1-12] |  | fold loss of potency against Mcl-1/Bim (Mcl-1/Bim; 1-15 and 1-13 vs 1-10, 1-14 vs 1-11, 1-16 vs 1-15, 1-12 vs 1-9, 1-22, 1-21, 1-20 vs 1-23, 1-37 and N-Me methoxy analogue vs (±)-1): 21 fold

Compound | IC50 (Mcl-1/Bim; [1]) | IC50 (Mcl-1/Bim; [2]) | IC50 (Bcl-xL/Bim; [3]) | IC50 (Bcl-xL/Bim; [4]) | selectivity profile Mcl-1 vs Bcl-xL in words (Mcl-1/Bim) | other results
Cc1cc(O)c(C(=O)c2[nH]c(Cl)c(Cl)c2-n2c(C(=O)c3cc(Cl)c(C)cc3O)cc(Cl)c2Cl)cc1Cl [Compound 1-2, (4,4′,5,5′-Tetrachloro-1′H-1,3′-bipyrrole-2,2′-diyl)bis((5-chloro-2-hydroxy-4-methylphenyl)methanone)] | 2600 ± 600 nM | 2600 ± 600 nM | 2500 ± 400 nM | 2500 ± 400 nM | dual Mcl-1 and Bcl-XL antagonists | 
